Laboratory results from PubChem BioAssay AID256 (DTP/NCI, 2004).
Values joined by “and” are separate entries in the source; they are usually repeats but may differ in a detail not shown here. Identical values can stand only once. Toxic doses and inconclusive results are not listed.

Tested on: CD2F1 mice, L1210 leukemia ip, survival T/C
Assay: NCI In Vivo Anticancer Drug Screen. Data for tumor model L1210 Leukemia (intraperitoneal) in CD2F1 (CDF1) mice
Settings: higher = longer survival
Summary of the method: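 Mice carrying a transplanted tumor received test compound or vehicle alone. The value is the measurement in the treated group divided by that in the vehicle-treated control group.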

[1] = endpoint: mean survival time, dose: 100.0 mg/kg/injection, schedule: Q01DX001 (ip), vehicle: saline with Tween-80
[2] = endpoint: mean survival time, dose: 200.0 mg/kg/injection, schedule: Q01DX001 (ip), vehicle: saline with Tween-80
[3] = endpoint: mean survival time, dose: 400.0 mg/kg/injection, schedule: Q01DX001 (ip), vehicle: saline with Tween-80
[4] = endpoint: mean survival time, dose: 100.0 mg/kg/injection, schedule: Q01DX009 (ip), vehicle: saline
[5] = endpoint: mean survival time, dose: 200.0 mg/kg/injection, schedule: Q01DX009 (ip), vehicle: saline
[6] = endpoint: mean survival time, dose: 50.0 mg/kg/injection, schedule: Q01DX009 (ip), vehicle: saline with Tween-80
[7] = endpoint: mean survival time, dose: 100.0 mg/kg/injection, schedule: Q01DX009 (ip), vehicle: saline with Tween-80
[8] = endpoint: mean survival time, dose: 100.0 mg/kg/injection, schedule: Q04DX003 (ip), vehicle: saline with Tween-80
[9] = endpoint: mean survival time, dose: 200.0 mg/kg/injection, schedule: Q01DX009 (ip), vehicle: saline with Tween-80
[10] = endpoint: mean survival time, dose: 200.0 mg/kg/injection, schedule: Q04DX003 (ip), vehicle: saline with Tween-80
[11] = endpoint: mean survival time, dose: 400.0 mg/kg/injection, schedule: Q04DX003 (ip), vehicle: saline with Tween-80
[12] = endpoint: mean survival time, dose: 50.0 mg/kg/injection, schedule: Q01DX001 (ip), vehicle: saline
[13] = endpoint: mean survival time, dose: 100.0 mg/kg/injection, schedule: Q01DX001 (ip), vehicle: saline

Cc1cc(NC(=O)NC/C(Cl)=C/Cl)c2ccccc2n1
T/C [1]: 93 % of control
T/C [2]: 93 % of control
T/C [3]: 98 % of control

CNCC(O)c1ccc(O)cc1 (stereo unspecified)
T/C [4]: 94 % of control
T/C [5]: 91 % of control

CCS(=O)(=O)C(C)S(=O)(=O)CC
T/C [1]: 100 % of control
T/C [2]: 107 % of control
T/C [3]: 104 % of control

C[C@@H]1C[C@@]2(C)[C@@H](CC[C@@H]3[C@@H]2CC[C@@]2(C)[C@H]3CC[C@]2(C)O)CC1=O
T/C (endpoint: mean survival time, dose: 25.0 mg/kg/injection, schedule: Q01DX009 (ip), vehicle: saline with Tween-80): 95 % of control
T/C [6]: 95 % of control
T/C [7]: 94 % of control
T/C [8]: 91 % of control

O=C(C#Cc1ccccc1)N1CCCCC1
T/C (endpoint: mean survival time, dose: 25.0 mg/kg/injection, schedule: Q04DX002 (ip), vehicle: saline with Tween-80): 99 % of control
T/C (endpoint: mean survival time, dose: 50.0 mg/kg/injection, schedule: Q04DX002 (ip), vehicle: saline with Tween-80): 99 % of control
T/C (endpoint: mean survival time, dose: 100.0 mg/kg/injection, schedule: Q04DX002 (ip), vehicle: saline with Tween-80): 101 % of control
T/C (endpoint: mean survival time, dose: 200.0 mg/kg/injection, schedule: Q04DX002 (ip), vehicle: saline with Tween-80): 92 % of control

CCOC(=O)/C=C\C1CCCCC1
T/C [6]: 93 % of control
T/C [7]: 108 % of control
T/C [9]: 104 % of control

O=C(O)C(O)(Cl)c1cccs1 (stereo unspecified)
T/C [8]: 98 % of control
T/C [10]: 95 % of control
T/C [11]: 95 % of control

CONC(=O)c1ccccc1N=NN(C)C
T/C (endpoint: mean survival time, dose: 18.75 mg/kg/injection, schedule: Q01DX009 (ip), vehicle: Klucel (hydroxypropylcellulose) (HPC)): 117 % of control and 107 % of control
T/C (endpoint: mean survival time, dose: 37.5 mg/kg/injection, schedule: Q01DX009 (ip), vehicle: Klucel (hydroxypropylcellulose) (HPC)): 117 % of control and 109 % of control
T/C (endpoint: mean survival time, dose: 75.0 mg/kg/injection, schedule: Q01DX009 (ip), vehicle: Klucel (hydroxypropylcellulose) (HPC)): 101 % of control

Cc1nc2ccccn2c(=O)c1Br
T/C [12]: 104 % of control
T/C [13]: 104 % of control
T/C (endpoint: mean survival time, dose: 200.0 mg/kg/injection, schedule: Q01DX001 (ip), vehicle: saline): 104 % of control

NC(=Nc1ccccc1)SCCS(=O)(=O)O
T/C [8]: 102 % of control
T/C [10]: 100 % of control
T/C [11]: 104 % of control

COc1ccc(/C=C(/C#N)c2ccccc2)cc1
T/C [8]: 95 % of control
T/C [10]: 93 % of control
T/C [11]: 90 % of control

CCOC(=O)NC(=O)OCC
T/C (endpoint: mean survival time, dose: 100.0 mg/kg/injection, schedule: Q01DX001 (ip), vehicle: saline sonified): 102 % of control
T/C (endpoint: mean survival time, dose: 200.0 mg/kg/injection, schedule: Q01DX001 (ip), vehicle: saline sonified): 107 % of control
T/C (endpoint: mean survival time, dose: 400.0 mg/kg/injection, schedule: Q01DX001 (ip), vehicle: saline sonified): 100 % of control

CC(C)=CC1C(C(=O)OCc2ccc(C)cc2C)C1(C)C (stereo unspecified)
T/C [12]: 94 % of control
T/C [13]: 91 % of control
T/C [4]: 96 % of control
T/C (endpoint: mean survival time, dose: 100.0 mg/kg/injection, schedule: Q04DX003 (ip), vehicle: saline): 87 % of control
T/C [5]: 96 % of control
T/C (endpoint: mean survival time, dose: 200.0 mg/kg/injection, schedule: Q04DX003 (ip), vehicle: saline): 87 % of control
T/C (endpoint: mean survival time, dose: 400.0 mg/kg/injection, schedule: Q01DX001 (ip), vehicle: saline): 100 % of control
T/C (endpoint: mean survival time, dose: 400.0 mg/kg/injection, schedule: Q01DX009 (ip), vehicle: saline): 102 % of control
T/C (endpoint: mean survival time, dose: 400.0 mg/kg/injection, schedule: Q04DX003 (ip), vehicle: saline): 94 % of control

Cc1ccc(-c2c(O)c(Br)c(-c3ccc(C)cc3C)c(O)c2Br)c(C)c1
T/C [7]: 97 % of control
T/C [8]: 93 % of control
T/C [9]: 97 % of control
T/C [10]: 90 % of control
T/C (endpoint: mean survival time, dose: 400.0 mg/kg/injection, schedule: Q01DX009 (ip), vehicle: saline with Tween-80): 94 % of control
T/C [11]: 92 % of control

Nc1nc2ccc(NCc3ccc(C(=O)NC(CCC(=O)O)C(=O)O)cc3)cc2c(=O)[nH]1 (stereo unspecified)
T/C (endpoint: median survival time, dose: 6.25 mg/kg/injection, schedule: Q01DX009 (ip), vehicle: saline with Tween-80): 100 % of control and 101 % of control
T/C (endpoint: median survival time, dose: 12.5 mg/kg/injection, schedule: Q01DX009 (ip), vehicle: saline with Tween-80): 100 % of control and 108 % of control (2×)
T/C (endpoint: median survival time, dose: 25.0 mg/kg/injection, schedule: Q01DX009 (ip), vehicle: saline with Tween-80): 115 % of control and 118 % of control and 119 % of control
T/C (endpoint: median survival time, dose: 50.0 mg/kg/injection, schedule: Q01DX009 (ip), vehicle: saline with Tween-80): 155 % of control
